According to paper PMC10004634 (PLOS ONE, 2023):

How the values were obtained:
[1] = molecular target: RIPK2 (Homo sapiens, UniProt O43353); test: KINOMEscan binding assay; conditions: 300 nM; read-out: inhibition of kinase binding (KINOMEscan)
[2] = molecular target: T1, HUNK (Homo sapiens, UniProt P57058); test: KINOMEscan binding assay; design: purchased Eurofins DiscoverX (KINOMEscan scanMAX service); conditions: 300 nM; read-out: inhibition of kinase binding (KINOMEscan)
T1 sequence (P57058 1-714): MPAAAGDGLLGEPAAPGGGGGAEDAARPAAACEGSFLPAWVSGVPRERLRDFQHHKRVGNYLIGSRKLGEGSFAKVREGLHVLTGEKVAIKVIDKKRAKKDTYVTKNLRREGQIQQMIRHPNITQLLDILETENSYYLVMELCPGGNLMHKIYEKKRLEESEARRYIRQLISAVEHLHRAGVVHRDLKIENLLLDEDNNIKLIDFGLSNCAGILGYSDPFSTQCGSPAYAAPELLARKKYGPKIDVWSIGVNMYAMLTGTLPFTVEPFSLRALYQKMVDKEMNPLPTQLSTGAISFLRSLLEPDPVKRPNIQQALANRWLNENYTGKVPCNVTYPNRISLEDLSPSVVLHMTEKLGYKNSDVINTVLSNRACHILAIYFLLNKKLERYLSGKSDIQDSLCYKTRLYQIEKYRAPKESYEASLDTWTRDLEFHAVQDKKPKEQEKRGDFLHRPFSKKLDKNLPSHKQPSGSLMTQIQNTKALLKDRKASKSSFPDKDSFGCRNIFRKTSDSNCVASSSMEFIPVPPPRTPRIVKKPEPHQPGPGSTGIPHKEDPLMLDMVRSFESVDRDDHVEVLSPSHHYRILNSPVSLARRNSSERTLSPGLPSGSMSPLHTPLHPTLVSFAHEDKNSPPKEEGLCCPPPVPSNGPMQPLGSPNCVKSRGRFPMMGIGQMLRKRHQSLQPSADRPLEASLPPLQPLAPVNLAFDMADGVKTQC

[3] = molecular target: BTK (Homo sapiens, UniProt Q06187); test: In vivo pharmacodynamics: BTK phosphorylation in TMD8 xenograft tumors (flow cytometry); design: endogenous in cells; host or cells: TMD8 tumour cells from subcutaneous xenografts in SCID mice; conditions: TMD8, mouse, 1 h after final administration, read-out: BTK phosphorylation inhibition rate in tumor
Sequence of BTK (Q06187 whole entry): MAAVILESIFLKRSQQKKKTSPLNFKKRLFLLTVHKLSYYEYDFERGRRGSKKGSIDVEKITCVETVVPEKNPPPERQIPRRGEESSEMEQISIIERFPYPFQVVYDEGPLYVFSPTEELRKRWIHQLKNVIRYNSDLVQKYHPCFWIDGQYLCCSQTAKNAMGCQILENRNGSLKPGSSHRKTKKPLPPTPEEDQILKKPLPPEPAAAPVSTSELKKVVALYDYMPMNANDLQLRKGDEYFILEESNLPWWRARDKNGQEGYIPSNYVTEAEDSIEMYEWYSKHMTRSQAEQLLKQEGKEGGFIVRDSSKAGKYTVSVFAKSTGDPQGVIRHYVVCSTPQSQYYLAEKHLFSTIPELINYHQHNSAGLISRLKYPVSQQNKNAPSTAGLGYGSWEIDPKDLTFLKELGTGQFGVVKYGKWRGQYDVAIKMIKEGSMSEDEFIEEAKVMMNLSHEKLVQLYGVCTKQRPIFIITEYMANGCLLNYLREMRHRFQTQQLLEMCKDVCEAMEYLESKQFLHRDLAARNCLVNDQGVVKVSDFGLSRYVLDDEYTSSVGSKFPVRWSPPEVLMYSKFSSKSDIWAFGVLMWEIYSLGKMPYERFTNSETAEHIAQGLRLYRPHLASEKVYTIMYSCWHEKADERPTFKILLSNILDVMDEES
Description: One hour after the final dosing, mice underwent laparotomy under isoflurane anesthesia and were sacrificed by exsanguination; tumors were collected. After measuring the wet weight, each tumor was placed on a 70-μm cell strainer (BD Falcon, Franklin Lakes, NJ, USA) placed in one well of a six-well plate on ice. After adding an amount of precooled culture medium, tumor cells were detached. The cell suspension was transferred to a tube and centrifuged for 8 min at 400 × g. Supernatant was excluded by aspiration, and cells were resuspended in culture medium. The tumor suspension was diluted with culture medium to a cell density of 1.0 × 10^6 cells/mL and pipetted into a 96-well plate. […] Cells were incubated for a further 10 min. Fix Buffer 1 (BD Biosciences, Franklin Lakes, NJ, USA) was added to each well, and the plate was centrifuged for 8 min at 400 × g at room temperature; the supernatant was removed by decantation. Each sample was washed twice with Perm Wash Buffer (BD Biosciences) before the addition of rabbit monoclonal p-BTK antibody (Tyr-223) (Novus Biologicals, #NB100-79907) diluted 500-fold with Perm Wash Buffer and 30-min incubation in the dark at room temperature. Cells underwent two rounds of Perm Wash buffer washes and centrifugation before the addition of the secondary antibody (100 μL Alexa Fluor 488 [Fab’] 2 fragments of goat anti-rabbit IgG [H+L]; Thermo Fisher Scientific) diluted 5,000-fold with Perm Wash buffer. After a 30-min incubation in the dark at room temperature, cells were washed once more and suspended with Stain Buffer (BD Biosciences). Cytomics FC500 MPL and data analysis software CXP Analysis (both from Beckman Coulter K.K, Shizuoka, Japan) were used for flow cytometry analysis. A gate containing the cell population of interest was created in a forward scatter and side scatter dot plot. […] The 7-AAD-positive cell rate (%) and the mean fluorescent intensity of BTK phosphorylation in cells in the relevant gate were measured. […]

Sequence of RIPK2 (O43353 whole entry): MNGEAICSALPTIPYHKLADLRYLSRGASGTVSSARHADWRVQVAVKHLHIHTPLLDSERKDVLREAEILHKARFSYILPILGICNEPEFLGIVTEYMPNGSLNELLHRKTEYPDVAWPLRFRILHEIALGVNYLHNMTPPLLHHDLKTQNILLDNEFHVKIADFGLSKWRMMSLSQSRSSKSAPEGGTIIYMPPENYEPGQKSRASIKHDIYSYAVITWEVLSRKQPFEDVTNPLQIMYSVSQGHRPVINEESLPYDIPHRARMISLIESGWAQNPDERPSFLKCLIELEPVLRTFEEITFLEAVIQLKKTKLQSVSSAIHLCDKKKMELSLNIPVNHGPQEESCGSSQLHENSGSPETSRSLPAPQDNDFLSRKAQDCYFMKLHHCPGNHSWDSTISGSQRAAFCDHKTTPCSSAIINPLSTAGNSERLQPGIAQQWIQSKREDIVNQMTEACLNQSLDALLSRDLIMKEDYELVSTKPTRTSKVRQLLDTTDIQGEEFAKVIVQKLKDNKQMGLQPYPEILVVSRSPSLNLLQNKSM

## CC#CC(=O)N1CC[C@@H](n2c(=O)n(-c3ccc(Oc4ccccc4)cc3)c3c(N)ncnc32)C1 [Tirabrutinib]
[1]
  inhibition at 0.3 µM: 67%
[2]
  inhibition at 0.3 µM: 89%
[3]; 1 mg/kg BID 21 days
  inhibition at 1 mg/kg: 64%
[3]; 3 mg/kg BID 21 days
  inhibition at 3 mg/kg: 79.2%
[3]; 10 mg/kg BID 21 days
  inhibition at 10 mg/kg: 85.4%
